Values joined by “and” are separate entries in the source; they are usually repeats but may differ in a detail not shown here. Equal entries are not always repeated. Inconclusive results and toxic doses are left out. Rule as the data show it: active = T/C of 150% or more; inactive = T/C below 125%.
Test system: L1210 leukemia ip in BDF1 mice, survival T/C
Test: NCI In Vivo Anticancer Drug Screen. Data for tumor model L1210 Leukemia (intraperitoneal) in B6D2F1 (BDF1) mice
Conditions: endpoint: mean survival time, higher = longer survival
Summary of the method: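 Each compound was tested against a transplantable tumor grown in mice. The endpoint was survival, with treated animals benchmarked against vehicle controls as a simple ratio.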

[1] = dose: 100.0 mg/kg/injection, schedule: Q01DX009 (ip), vehicle: Klucel (hydroxypropylcellulose) (HPC)
[2] = dose: 200.0 mg/kg/injection, schedule: Q01DX009 (ip), vehicle: Klucel (hydroxypropylcellulose) (HPC)
[3] = dose: 50.0 mg/kg/injection, schedule: Q01DX001 (ip), vehicle: carboxymethylcellulose (CMC)
[4] = dose: 100.0 mg/kg/injection, schedule: Q01DX001 (ip), vehicle: carboxymethylcellulose (CMC)
[5] = dose: 200.0 mg/kg/injection, schedule: Q01DX001 (ip), vehicle: carboxymethylcellulose (CMC)
[6] = dose: 400.0 mg/kg/injection, schedule: Q01DX001 (ip), vehicle: carboxymethylcellulose (CMC)

Measured: T/C

Nc1nc2c(c(=O)[nH]1)[N+]1=CN(c3ccc(C(=O)NC(CCC(=O)O)C(=O)O)cc3)CCC1CN2 (stereo unspecified)
inactive: dose: 1.0 mg/kg/injection, schedule: Q01DX009 (ip), vehicle: saline 94 % of control | dose: 2.0 mg/kg/injection, schedule: Q01DX009 (ip), vehicle: saline 100 % of control | dose: 4.0 mg/kg/injection, schedule: Q01DX009 (ip), vehicle: saline 105 % of control | dose: 4.0 mg/kg/injection, schedule: Q04DX003 (ip), vehicle: saline 97 % of control | dose: 8.0 mg/kg/injection, schedule: Q01DX009 (ip), vehicle: saline 94 % of control | dose: 8.0 mg/kg/injection, schedule: Q04DX003 (ip), vehicle: saline 100 % of control | dose: 16.0 mg/kg/injection, schedule: Q01DX009 (ip), vehicle: saline 97 % of control | dose: 16.0 mg/kg/injection, schedule: Q04DX003 (ip), vehicle: saline 99 % of control | dose: 32.0 mg/kg/injection, schedule: Q04DX003 (ip), vehicle: saline 90 % of control | dose: 64.0 mg/kg/injection, schedule: Q04DX003 (ip), vehicle: saline 97 % of control

CN(C)CCNCC(Cc1ccccc1)c1ccccc1 (stereo unspecified)
inactive: dose: 25.0 mg/kg/injection, schedule: Q04DX002 (ip), vehicle: saline 92 % of control | dose: 50.0 mg/kg/injection, schedule: Q04DX002 (ip), vehicle: saline 92 % of control | dose: 100.0 mg/kg/injection, schedule: Q04DX002 (ip), vehicle: saline 100 % of control and 89 % of control

O=C(/C=C/c1cccc([N+](=O)[O-])c1)NCCBr
inactive: [1] 101 % of control | dose: 100.0 mg/kg/injection, schedule: Q04DX003 (ip), vehicle: Klucel (hydroxypropylcellulose) (HPC) 95 % of control | [2] 101 % of control | dose: 200.0 mg/kg/injection, schedule: Q04DX003 (ip), vehicle: Klucel (hydroxypropylcellulose) (HPC) 97 % of control | dose: 400.0 mg/kg/injection, schedule: Q04DX003 (ip), vehicle: Klucel (hydroxypropylcellulose) (HPC) 95 % of control

COc1ccccc1NC(=O)Nc1ccc(C)c(C)c1
inactive: dose: 100.0 mg/kg/injection, schedule: Q01DX009 (ip), vehicle: gum acacia 92 % of control | dose: 100.0 mg/kg/injection, schedule: Q04DX003 (ip), vehicle: gum acacia 96 % of control | dose: 200.0 mg/kg/injection, schedule: Q01DX009 (ip), vehicle: gum acacia 96 % of control | dose: 200.0 mg/kg/injection, schedule: Q04DX003 (ip), vehicle: gum acacia 98 % of control | dose: 400.0 mg/kg/injection, schedule: Q01DX009 (ip), vehicle: gum acacia 90 % of control | dose: 400.0 mg/kg/injection, schedule: Q04DX003 (ip), vehicle: gum acacia 90 % of control

CC(=O)c1cc(O)ccc1O
inactive: dose: 25.0 mg/kg/injection, schedule: Q01DX009 (ip), vehicle: saline with Tween-80 96 % of control | dose: 50.0 mg/kg/injection, schedule: Q01DX009 (ip), vehicle: saline with Tween-80 98 % of control | dose: 100.0 mg/kg/injection, schedule: Q01DX009 (ip), vehicle: saline with Tween-80 98 % of control and 86 % of control | dose: 400.0 mg/kg/injection, schedule: Q01DX009 (ip), vehicle: saline with Tween-80 91 % of control

O=C(COc1ccc(Cl)cc1)NCCc1ccccc1
inactive: [1] 97 % of control | [2] 92 % of control | dose: 400.0 mg/kg/injection, schedule: Q01DX009 (ip), vehicle: Klucel (hydroxypropylcellulose) (HPC) 98 % of control

CC(=O)Nc1ccc2c(c1)C(N(C)C)c1ccccc1-2 (stereo unspecified)
inactive: [3] 101 % of control | [4] 106 % of control

CC(=O)OC(C)CC[P+](c1ccccc1)(c1ccccc1)c1ccccc1 (stereo unspecified)
inactive: dose: 75.0 mg/kg/injection, schedule: Q01DX001 (ip), vehicle: other 104 % of control | dose: 150.0 mg/kg/injection, schedule: Q01DX001 (ip), vehicle: other 106 % of control

CCOC(=O)C(CCCCC(C(=O)OCC)C(=O)OCC)C(=O)OCC
inactive: dose: 100.0 mg/kg/injection, schedule: Q01DX001 (ip), vehicle: saline 103 % of control | dose: 200.0 mg/kg/injection, schedule: Q01DX001 (ip), vehicle: saline 109 % of control | dose: 400.0 mg/kg/injection, schedule: Q01DX001 (ip), vehicle: saline 105 % of control

CC1CCCN(C(=S)[S-])C1.CC1CCCN(C(=S)[S-])C1.[Zn] (stereo unspecified)
inactive: dose: 1.25 mg/kg/injection, schedule: Q01DX009 (ip), vehicle: saline 88 % of control | dose: 2.5 mg/kg/injection, schedule: Q01DX009 (ip), vehicle: saline 86 % of control | dose: 2.5 mg/kg/injection, schedule: Q04DX003 (ip), vehicle: acetone 91 % of control | dose: 5.0 mg/kg/injection, schedule: Q04DX003 (ip), vehicle: acetone 88 % of control | dose: 10.0 mg/kg/injection, schedule: Q01DX001 (ip), vehicle: saline 96 % of control | dose: 10.0 mg/kg/injection, schedule: Q04DX003 (ip), vehicle: acetone 88 % of control | dose: 10.0 mg/kg/injection, schedule: Q04DX003 (ip), vehicle: saline 86 % of control

COc1ccc2c(c1)CCCCC2=O
inactive: [3] 105 % of control | [4] 102 % of control | [5] 100 % of control | [6] 102 % of control

CC(C)(CO)NCc1ccc(O)cc1
inactive: [4] 96 % of control | [5] 100 % of control | [6] 96 % of control

CC(C)=NSc1ccccc1
inactive: dose: 50.0 mg/kg/injection, schedule: Q01DX001 (ip), vehicle: Klucel (hydroxypropylcellulose) (HPC) 99 % of control | dose: 100.0 mg/kg/injection, schedule: Q01DX001 (ip), vehicle: Klucel (hydroxypropylcellulose) (HPC) 97 % of control | dose: 200.0 mg/kg/injection, schedule: Q01DX001 (ip), vehicle: Klucel (hydroxypropylcellulose) (HPC) 97 % of control

COc1cc(N)ccc1NC(=O)c1ccccc1
inactive: dose: 12.5 mg/kg/injection, schedule: Q01DX001 (ip), vehicle: carboxymethylcellulose (CMC) 117 % of control | dose: 25.0 mg/kg/injection, schedule: Q01DX001 (ip), vehicle: carboxymethylcellulose (CMC) 106 % of control

CCCCC(/C=N/N=C(N)N)=N\N=C(N)N
inactive: dose: 15.0 mg/kg/injection, schedule: Q01DX Z (ip), vehicle: saline 95 % of control | dose: 15.0 mg/kg/injection, schedule: Q01DX Z (oral), vehicle: saline 98 % of control | dose: 30.0 mg/kg/injection, schedule: Q01DX Z (ip), vehicle: saline 103 % of control | dose: 30.0 mg/kg/injection, schedule: Q01DX Z (oral), vehicle: saline 91 % of control | dose: 60.0 mg/kg/injection, schedule: Q01DX Z (oral), vehicle: saline 91 % of control | dose: 120.0 mg/kg/injection, schedule: Q01DX Z (oral), vehicle: saline 94 % of control

COC1CCCNC1CC(=O)Cn1cnc2cc3c(cc2c1=O)OCO3 (stereo unspecified)
inactive: dose: 18.75 mg/kg/injection, schedule: Q01DX009 (ip), vehicle: saline 92 % of control | dose: 37.5 mg/kg/injection, schedule: Q01DX009 (ip), vehicle: saline 111 % of control | dose: 37.5 mg/kg/injection, schedule: Q04DX003 (ip), vehicle: saline 98 % of control | dose: 75.0 mg/kg/injection, schedule: Q01DX001 (ip), vehicle: saline 101 % of control | dose: 75.0 mg/kg/injection, schedule: Q01DX009 (ip), vehicle: saline 93 % of control | dose: 75.0 mg/kg/injection, schedule: Q04DX003 (ip), vehicle: saline 104 % of control | dose: 150.0 mg/kg/injection, schedule: Q01DX001 (ip), vehicle: saline 107 % of control | dose: 150.0 mg/kg/injection, schedule: Q04DX003 (ip), vehicle: saline 100 % of control
